Measured values as given in ChEMBL document CHEMBL1145414, “Candidaspongiolides, distinctive analogues of tedanolide from sponges of the genus Candidaspongia” (2007).
Values after ≈ are worked out from the molar mass of the structure shown.

Test: Cytotoxicity against NCI60 cells
Format: functional
Conditions: Homo sapiens

Row | SMILES | GI50
1 | C/C=C\[C@H](C)[C@H]1O[C@@]1(C)[C@@H](O)[C@H]1COC(=O)[C@H](O)[C@@H](OC)[C@H](C)C(=O)[C@H](C)[C@@H](O)/C(C)=C/[C@H](C)C(=O)CC[C@@H](C)C1=O | 0.09 ng/mL (≈ 0.000151 µM)
2 | C/C=C\[C@H](C)[C@H]1OC1(C)[C@@H](O)[C@H]1COC(=O)[C@H](O)[C@@H](OC)[C@H](C)C(=O)[C@H](C)[C@@H](OC(C)=O)/C(C)=C/[C@H](C)C(=O)C[C@H](O)[C@@](O)(CO)C1=O (single isomer, unassigned) | 42 ng/mL (≈ 0.0613 µM)
